Data: patent EP3818828A1 (priority 2019, dated 2021)
Values joined by “and” are separate entries in the source; they are usually repeats but may differ in a detail not shown here. Equal values may be shown once.

How the values were obtained:
[1] = tested on: F. graminearum; test: microbe, parasite or virus in culture; type: cell-based; conditions: for Average Diameter of the Colony: F. graminearum, 1 mg/mL; for inhibition at 1000 µg/mL: Fusarium graminearum, read-out: Inhibition Rate
[2] = tested on: Pyricularia grisea; test: microbe, parasite or virus in culture; type: cell-based; conditions: for Average Diameter of the Colony: 1 mg/mL; for inhibition at 1000 µg/mL: read-out: Inhibition Rate
[3] = tested on: E. polygoni; test: In-vivo greenhouse control of marrow bean powdery mildew
Protocol: (§1) 3.88 g of 3-(3',4'-methylenedioxy phenyl)-N-n-propyl acrylamide was weighed and dissolved in 25 g of absolute ethyl alcohol, then 6 g of emulsifier 0203B was added, and mixed uniformly with stirring to get 10% of 3-(3',4'-methylenedioxy phenyl)-N-n-propyl acrylamide EC.
(§2) 5.61 g of 3-(3',4'-methylenedioxy phenyl)-piperidine acrylate was weighed and dissolved in 25 g of absolute ethyl alcohol, then 6 g of emulsifier 0203B was added, and mixed uniformly with stirring to get 14% of 3-(3',4'-methylenedioxy phenyl)-piperidine acrylate EC.
Marrow bean (Variety: Thailand Jiadouwang) was cultured in pots in a greenhouse, and inoculated with E. polygoni at the stage of 4 leaves. The first application was started at the early onset (onset at the first true leaf: first appearance of spots), comprising 10% of 3-(3',4'-methylenedioxy phenyl)-N-n-propyl acrylamide EC and 14% of 3-(3',4'-methylenedioxy phenyl)-piperidine acrylate EC, which were both diluted at three concentrations of 0.20, 0.143, 0.10 mg/mL (active ingredients), the control agent, 12.5% of myclobutanil EC (North China pharmaceutical Group, Ainuo Co. Ltd.), was also diluted at three concentrations of 0.20, 0.143, 0.10 mg/mL (active ingredients), additionally clear water was used as the control. Both sides of the leaves were sprayed evenly with a small hand-held sprayer so that the leaves were wetted by the liquor without loss. Applications were conducted every 7 days consecutively for 4 times. 10 days after the fourth application, the number of sick leaves at each grade of powdery mildew was investigated for the whole plant following the grading standard of 9 grades, to calculate the disease index and the control effect.

[4] = tested on: Erysiphe cucurbitacearum or Sphaerotheca cucurbitae; test: In-vivo greenhouse control of zucchini powdery mildew
Protocol: as §1, §2
Zucchini (Variety: Wuwei Xianglin extra-early 1st generation) was cultured in pots in a greenhouse, and inoculated with Erysiphe cucurbitacearum or Sphaerotheca cucurbitae at the stage of 3 to 4 leaves. The first application was started at the early onset (onset at the first true leaf: first appearance of spots), comprising 10% of 3-(3',4'-methylenedioxy phenyl)-N-n-propyl acrylamide EC and 14% of 3-(3',4'-methylenedioxy phenyl)-piperidine acrylate EC, which were both diluted at four concentrations of 0.50, 0.333, 0.25, 0.20 mg/mL (active ingredients), additionally clear water was used as the control. Both sides of the leaves were sprayed evenly with a small hand-held sprayer so that the leaves were wetted by the liquor without loss. Applications were conducted every 7 days consecutively for 4 times. 10 days after the fourth application, the number of sick leaves at each grade of powdery mildew was investigated for the whole plant following the grading standard of 9 grades, to calculate the disease index and the control effect. The computational formula is as below: Disease index = [(Number of sick leaves at each grade×Corresponding grade value)/(Total number of investigated leaves×9)] × 100; [formula] Control effect = (Disease index of the clear water control−Treated disease index)/Disease index of the clear water control × 100. [formula]

[5] = tested on: zucchini, cucumber, flax, and tomato; test: Crop safety in the field efficiency tests; type: in vivo; conditions: at the test doses
Description: (§3) The variety of zucchini was Zaoqing F1 (manufactured by Wuwei Dadi Seed Industry Co., Ltd.), which was sown on July 29th, 2016. The first application was started on August 26th, at the early onset of powdery mildew (the average disease index is 10.07). The instrument for application was Agrolex HD 400 Model hand operating knapsack sprayer, which employed a cone nozzle. Each agent was formulated into the desired concentrations according to the usage amount of the control clear water. Both sides of the leaves were sprayed evenly so that the leaves were wetted by the liquor without loss. 10% of 3-(3',4'-methylenedioxy phenyl)-N-n-propyl acrylamide EC and 14% of 3-(3',4'-methylenedioxy phenyl)-piperidine acrylate EC were both diluted at a concentration of 0.50 mg/mL (active ingredients); the control agent, 430 g/L of tebuconazole SC (manufactured by Yantai Keda Chemical Co., Ltd.) was also diluted at a concentration of 0.50 mg/mL (active ingredients); additionally clear water was used as the control. Thereafter, applications were conducted every 7 days consecutively for 4 times. 10 days after the last application, the number of sick leaves at each grade of powdery mildew was investigated for the whole plant following the grading standard of 9 grades, to calculate the disease index and the control effect.
The variety of flax is Zhangya No. 2. […]

[6] = tested on: zucchini powdery mildew; test: Field efficiency test, zucchini powdery mildew; type: in vivo; conditions: 0.50 mg/mL (active ingredients)
Description: (§4) The formulation of emulsifiable concentrate is the same as that in Embodiment 3.
as §3

[7] = tested on: Oidium lini; test: Field efficiency test, flax powdery mildew; type: in vivo; conditions: 0.50 mg/mL (active ingredients)
Protocol: as §4
The variety of flax is Zhangya No. 2. 10% of 3-(3',4'-methylenedioxy phenyl)-N-n-propyl acrylamide EC and 14% of 3-(3',4'-methylenedioxy phenyl)-piperidine acrylate EC were both diluted at a concentration of 0.50 mg/mL (active ingredients); the control agent, 430 g/L of tebuconazole SC, was also diluted at a concentration of 0.50 mg/mL (active ingredients); additionally clear water was used as the control. The first application was started at the first appearance of spots for flax powdery mildew (Oidium lini) (natural incidence), and the second application was carried out 10 days later. The instrument for application was a WS-18D knapsack electric sprayer, which employed a cone nozzle. Each agent was formulated into the desired concentrations according to the usage amount of the control clear water. Both sides of the leaves were sprayed evenly. 10 days after the second application, the number of sick leaves at each grade of powdery mildew was investigated for the whole plant following the grading standard of 9 grades, to calculate the disease index and the control effect.

[8] = 0.10 mg/mL (active ingredients)
[9] = 0.143 mg/mL (active ingredients)
[10] = 0.20 mg/mL (active ingredients)
[11] = 0.333 mg/mL (active ingredients)
[12] = 0.50 mg/mL (active ingredients), spray every 7 days, 4 times

Row | SMILES | Average Diameter of the Colony [1] | inhibition at 1000 µg/mL [1] | Average Diameter of the Colony [2] | inhibition at 1000 µg/mL [2] | Control Effect [3, 8] | Control Effect [3, 9] | Control Effect [3, 10] | Control Effect [4, 11] | Control Effect [4, 12] | safety for zucchini, cucumber, flax, and tomato [5] | Control Effect [6] | Control Effect [7]
1 | O=C(/C=C/c1ccc2c(c1)OCO2)N1CCCCC1 [3-(3',4'-methylenedioxyphenyl)-piperidine acrylate] | 0.00 cm | 100% | 1.60 cm | 82.2% | 74.97% | 89.40% | 91.55% | 67.06% | 67.06% and 87.13% | safe for zucchini, cucumber, flax, and tomato | 30.04% | 41.82%
2 | CCCNC(=O)/C=C/c1ccc2c(c1)OCO2 [3-(3',4'-methylenedioxyphenyl)-N-n-propyl acrylamide] | 3.49 cm | 59.4% | 5.30 cm | 41.1% | 84.19% | 92.58% | 93.53% | 77.13% | 91.09% | safe for zucchini, cucumber, flax, and tomato | 60.24% | 83.70%
